{
  "source": "paper PMC6222450",
  "about": "“Computer-Aided Studies for Novel Arylhydantoin 1,3,5-Triazine Derivatives as 5-HT6 Serotonin Receptor Ligands with Antidepressive-Like, Anxiolytic and Antiobesity Action In Vivo” (Molecules : A Journal of Synthetic Chemistry and Natural …, 2018)",
  "key": {"5-HT1A": {"target": "T1, 5-HT1A (Homo sapiens, UniProt P08908)", "T1 construct": "expressed in transfected cells; host or cells: HEK-293", "T1 sequence (P08908 1-422)": "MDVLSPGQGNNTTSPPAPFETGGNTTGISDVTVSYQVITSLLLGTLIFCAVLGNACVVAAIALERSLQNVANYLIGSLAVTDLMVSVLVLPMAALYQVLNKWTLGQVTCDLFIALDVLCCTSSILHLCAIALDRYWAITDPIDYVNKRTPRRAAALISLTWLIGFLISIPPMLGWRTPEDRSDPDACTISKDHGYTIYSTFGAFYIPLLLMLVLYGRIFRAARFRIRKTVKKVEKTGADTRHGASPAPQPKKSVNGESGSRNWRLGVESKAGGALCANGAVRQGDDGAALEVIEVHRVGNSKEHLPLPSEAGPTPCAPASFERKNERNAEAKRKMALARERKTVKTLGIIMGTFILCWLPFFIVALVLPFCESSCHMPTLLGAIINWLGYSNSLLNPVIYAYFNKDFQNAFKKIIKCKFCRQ", "assay": "Radioligand binding assay, 5-HT1A, [3H]-8-OH-DPAT", "settings": "human receptor stably expressed in HEK-293 cells"}, "5-HT2A": {"target": "T2, 5-HT2A (Homo sapiens, UniProt P28223)", "T2 construct": "expressed in transfected cells; host or cells: HEK-293", "T2 sequence (P28223 whole entry)": "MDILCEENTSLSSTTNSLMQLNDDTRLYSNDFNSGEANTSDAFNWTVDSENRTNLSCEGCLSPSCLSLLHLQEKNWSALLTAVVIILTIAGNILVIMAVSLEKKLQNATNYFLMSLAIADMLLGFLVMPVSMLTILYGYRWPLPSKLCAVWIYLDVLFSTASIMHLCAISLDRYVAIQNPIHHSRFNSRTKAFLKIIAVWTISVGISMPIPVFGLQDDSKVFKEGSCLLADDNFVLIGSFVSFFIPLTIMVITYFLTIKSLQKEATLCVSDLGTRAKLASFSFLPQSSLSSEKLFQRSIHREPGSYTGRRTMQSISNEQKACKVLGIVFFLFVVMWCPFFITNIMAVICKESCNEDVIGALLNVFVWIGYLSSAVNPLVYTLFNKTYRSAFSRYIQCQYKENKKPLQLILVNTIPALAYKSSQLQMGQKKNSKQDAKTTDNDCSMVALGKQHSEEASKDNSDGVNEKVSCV", "assay": "Radioligand binding assay, 5-HT2A, [3H]-Ketanserin", "settings": "human receptor stably expressed in HEK-293 cells"}, "[1]": {"assay": "Body weight of non-obese rats fed palatable diet (model of excessive eating)", "type": "in vivo, rat", "source_text": "In order to determine the anorectic activity of 6 or 26, the model of excessive eating was used. Male Wistar rats (170–190 g) were housed in a pair in plastic cages in constant temperature facilities exposed to a light-dark cycle. Water and food were available ad libitum. Two groups of 6 rats were fed with diets consisting of milk chocolate with nuts, cheese, salted peanuts, and 7% condensed milk and also had access to standard feed (Labofeed B, Morawski Manufacturer Feed, Kcynia, Poland) and water ad libitum for 3 weeks. Palatable control group (palatable diet + vehicle) received vehicle (1% Tween 80, intraperitoneally), while palatable test group (palatable diet + 6 or palatable + 26) was injected (intraperitoneally) with 6 or 26 at the dose of 5 mg/kg b.w. dissolved in 1% Tween 80 (1 mL/kg). Body weights were measured daily, immediately prior to administration of drugs.\nThe palatable diet contained: 100 g peanuts—614 kcal; 100 mL condensed milk—131 kcal; 100 g milk chocolate—529 kcal; 100g cheese (Greek type)—270 kcal. The standard diet contained 100 g feed—280 kcal."}, "Lipophilicity by RP-TLC": {"assay": "Lipophilicity by RP-TLC", "type": "physicochemical", "settings": "RP-18 TLC, water/methanol, extrapolated to 100% water", "method": "For comparison, the active arylmethyl-triazine compounds previously found (1–3) were also examined. Stationary phase RP-18 and mixtures of water/methanol […] as a mobile phase were employed. RM values were calculated from the RF data obtained. […] The regression coefficients (r^2) determined for all compounds were higher than 0.95. On the basis of the linear relationship between RM values and the volume fraction of methanol, values of RM0 in the systems analyzed corresponding to 100% of water were obtained by extrapolation. RM0 values received for the compounds tested ranged from 3.14 to 4.49 (Figure 6).\nThe mobile phases were prepared by mixing the respective amounts of water and organic modifier (methanol) in a range from 40 to 90% (v/v) in 5% increments. TLC was performed on Silica gel 60RP-18 F254 plates (7 × 10 cm) plates (Merck, Darmstadt, Germany). Methanol was used to prepare the solutions of the substances. Solutions (10 µL) of the analyzed compounds were applied to the plates as 5 mm bands, 10 mm apart and 10 mm from the lower edge and sides of the plates, by using Linomat V applicator (Camag, Basel, Switzerland). The vertical chamber (Sigma–Aldrich, St. Louis, MI, USA), 20 × 10 × 18 cm in size, was saturated with mobile phase for 20 min. Development was carried out over 9 cm from the starting line at a temperature of 20 °C. Next, the plates were dried at room temperature, and the spots were observed under ultraviolet light at 254 nm and/or 366 nm (UV lamp, Camag, Basel, Switzerland). In each case, sharp and symmetric spots without a tendency for tailing were obtained. Each experiment was run in triplicate and mean RF (retardation factor) values were calculated.\nStarting from the RF values, the RM parameters were computed as described in the formula:RM = log(1/RF − 1)\nThe linear correlations between the RM values of the substances and the concentration of methanol in mobile phases were calculated for each compound with the Soczewiński-Wachtmeister equation [22]:RM = RM0 + aC where C is the concentration of the organic modifier (in %) in the mobile phase, a is the slope, and RM0 is the […]."}, "HEK-293 cells": {"tested_on": "HEK-293 cells", "assay": "Toxicity in vitro, MTS test", "type": "cell-based", "settings": "0.1 μM–100 μM, 72 h", "method": "The preliminary evaluation of the safety profile for the most promising 5-HT6R ligands 6 and 26 was performed in vitro with the HEK-293 eukaryotic cell line. The compounds examined were dissolved in culture growth media and incubated with cells for 72 h. Next, the MTS test was applied to determine the viability of the cells. […] The reference cytostatic drug doxorubicin (DX) at the very low concentration 1 μM was also cytotoxic.\nThe ATCC CRL 1573 HEK-293 cells were seeded in 96-well plates (NuncTM) at a concentration of 1 × 10^4 cells/well in 200 μL in Dulbecco’s Modified Eagle’s Medium (Gibco®) supplemented with 10% fetal bovine serum (Gibco®), and cultured at 37 °C in an atmosphere containing 5% of CO2 for 24 h to reach 60% confluence. The 10 mM stock solutions of 5-HT6R ligands 6 and 26 in DMSO were diluted into fresh growth medium and added into the microplates at the final concentrations 0.1 μM –100 μM. […] The cytostatic drug doxorubicin (Sigma-Aldrich) at the concentration 1 μM was used as a reference. After 72 h of incubation 20 μL of CellTiter 96® AQueous Non-Radioactive Cell Proliferation Assay (MTS) (Promega®) was added to each well and the cells were incubated under the same conditions for 2 h. The absorbance of the samples was measured using a microplate reader EnSpire (PerkinElmer, Waltham, MA, USA) at 490 nm. Statistical significance was analyzed by GraphPad Prism™ software v. 5.01 (GraphPad Software, La Jolla, CA, USA) using One-way ANOVA and Bonferroni’s Multiple Comparison Post Test."}},
  "note": "pKi: −log10 of the molar value.",
  "data": [
    {"smiles": "CN1CCN(c2nc(N)nc(CN3C(=O)NC(C)(c4ccc5ccccc5c4)C3=O)n2)CC1", "note": "(stereo not shown) [Compound 26, 3-((4-Amino-6-(4-methylpiperazin-1-yl)-1,3,5-triazin-2-yl)methyl)-5-methyl-5-(naphthalen-2-yl)imidazolidine-2,4-dione]", "values": [
      {"measurement": "pKi", "setting": "5-HT1A", "result": 4.85},
      {"measurement": "pKi", "setting": "5-HT2A", "result": 4.77},
      {"measurement": "day of experiment from which groups differed significantly", "setting": "[1]; rats fed palatable feed, 5 mg/kg b.w. i.p. daily", "result": 12, "unit": "days"},
      {"measurement": "weight gain vs control group", "setting": "[1]; rats fed palatable feed, 5 mg/kg b.w. i.p., 21 days", "result": "significantly less weight gain"},
      {"measurement": "body weight vs control animals fed standard feed", "setting": "[1]; treated rats with access to preferential feed, 5 mg/kg b.w. i.p.", "result": "did not differ significantly"},
      {"measurement": "RM0", "setting": "Lipophilicity by RP-TLC", "result": 3.76},
      {"measurement": "toxicity in HEK-293 cells", "setting": "HEK-293 cells", "result": "no significant toxicity"}
    ]}
  ]
}
